Assay results taken from patent US8895744B2, “Alfa-carboline inhibitors of NPM-ALK, RET, and Bcr-Abl” (Universita' Degli Studi di Milano-Bicocca, priority 2008, dated 2014).

Legend:
[1] = molecular target: BaF3 cells transformed with the oncogenic fusion protein bcr-abl (Homo sapiens, UniProt P00519); assay: Tritiated thymidine uptake cell proliferation assay, BaF3 BCR/ABL; assay type: cell-based; settings: 3[H]-thymidine uptake, 72 h; read-out: BaF BCR/ABL IC50
Description: (§1) Inhibition of the Proliferation of Bcr/Abl Positive Cells
(§2) Method: Tritiated Thymidine Uptake Cell Proliferation Assay
(§3) The following procedure was used with parent untransformed BaF3 cells, BaF3 cells transformed with the oncogenic fusion protein bcr-abl, Abl-negative U937 cells, or Bcr-abl positive LAMA-84 cells. The parent untransformed BaF3 cells and Abl-negative U937 cells are used as controls. Cells were seeded in U-bottomed 96-well plates at 10 000 cells/well in a volume of 100 μL in supplemented medium. In the case of the parent untransformed BaF3 cells, the medium was supplemented with IL-3. Serial dilutions of inhibitors were added to the appropriate wells and volumes adjusted to 200 μL. Controls were treated with the equivalent volume of vehicle, DMSO, alone. Plates were incubated at 37° C. for 72 h. ^3[H]-thymidine (1 μCi/well) was added for the last 16 h of incubation. Cells were harvested on to paper filters and ^3[H]-thymidine incorporation was measured using a β scintillation counter (1430 MicroBeta, Wallac, Turku, Finland). The 50% inhibitory concentration (IC50) was defined as the concentration of inhibitor, expressed in micromolar, that gave a 50% decrease in ^3H-thymidine uptake compared with controls.

[2] = test system: parent untransformed BaF3 cells; assay: Tritiated thymidine uptake cell proliferation assay, parental BaF3 (control); assay type: cell-based; settings: Mus musculus, 3[H]-thymidine uptake, 72 h, medium with IL-3, read-out: BaF parental IC50
Method in brief: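 Control lines were parental BaF3 in IL-3-supplemented medium and ALK-, Abl- or RET-negative U937, seeded at 10 000 cells/well with serial inhibitor dilutions for 72 h at 37 °C. ³H-thymidine (1 μCi/well) was added for the final 16 h; IC50 (μM) is the concentration halving uptake versus DMSO.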

Recombinant Ret protein = molecular target: T1, Recombinant Ret protein (Homo sapiens, UniProt P07949); assay: RET kinase inhibitory activity, ELISA-based in vitro kinase assay; assay type: biochemical; settings: purified Ret, 0.3 mM ATP
T1 construct: made in house; host or cells: Sf9 cells (baculovirus)

[3] = molecular target: T2, Recombinant Abl T315I protein (Homo sapiens, UniProt P00519, T315I); assay: Abl T315I mutant kinase inhibitory activity, ELISA-based in vitro kinase assay; assay type: biochemical; settings: purified Abl T315I, 0.3 mM ATP
T2 construct: made in house; host or cells: Sf9 cells (baculovirus)
Method in brief: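 His-tagged human Abl T315I from Sf9 cells, preincubated 10 min at room temperature with inhibitor, then reacted on peptide-coated plates with 0.3 mM ATP, 1 mM MnCl2, 5 mM MgCl2 in 50 mM Tris pH 7.5. Phosphotyrosine detected by anti-pTyr/HRP ELISA at 450 nm; IC50 as 50% inhibition vs control.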

Recombinant ALK kinase = molecular target: T3, Recombinant ALK kinase (Homo sapiens, UniProt Q9UM73); assay: ALK kinase inhibitory activity, ELISA-based in vitro kinase assay; assay type: biochemical; settings: purified rALK, 0.3 mM ATP, read-out: ALK IC50
T3 construct: made in house; host or cells: Sf9 insect cells (baculovirus)
Method in brief: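 Sf9-expressed, purified recombinant ALK phosphorylated a plate-coated peptide substrate with 0.3 mM ATP, Mn2+/Mg2+, pH 7.5, 15 min at 30° C, after 10 min inhibitor preincubation. Phosphotyrosine was detected by anti-pTyr ELISA (TMB, A450); IC50 in μM is the concentration giving 50% inhibition relative to control.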

[4] = molecular target: T4, BaF3 cells transformed with the oncogenic fusion protein NPM/ALK (Homo sapiens, UniProt Q9UM73); assay: Tritiated thymidine uptake cell proliferation assay, BaF3 NPM/ALK; assay type: cell-based; settings: 3[H]-thymidine uptake, 72 h; read-out: BaF NPM/ALK IC50
T4 construct: fused on or other part: P06748 (Nucleophosmin)
Method in brief: (§4)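 Cells were seeded at 10 000/well with serial inhibitor dilutions or DMSO vehicle and incubated 72 h at 37 °C, with ^3[H]-thymidine (1 μCi/well) added for the final 16 h. Incorporation was read by β scintillation counting. IC50 (μM) is the concentration giving a 50% decrease in uptake versus controls.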

[5] = molecular target: T5, BaF3 cells transformed with the oncogenic fusion protein RET-PTC2 (Homo sapiens, UniProt P07949); assay: Tritiated thymidine uptake cell proliferation assay, BaF3 RET/PTC; assay type: cell-based; settings: 3[H]-thymidine uptake, 72 h; read-out: BaF RET/PTC IC50
T5 construct: fused on or other part: P10644 (cAMP-dependent protein kinase type I-alpha regulatory subunit)
Description: Inhibition of the Proliferation of RET-positive Cells
as §2
as §3, with “RET-PTC2,” for “bcr-abl, Abl-negative U937 cells,”, “RET-negative 11937” for “Bcr-abl positive LAMA-84”, “RET-negative” for “Abl-negative”, “^3[H]-thymidine” for “^3H-thymidine”

[6] = test system: NPM/ALK positive KARPAS-299 cells; assay: Tritiated thymidine uptake cell proliferation assay, KARPAS-299; assay type: cell-based; settings: 3[H]-thymidine uptake, 72 h, read-out: K299 (NPM/ALK+) IC50
Description: Inhibition of the proliferation of NPM/ALK positive cells
as §2
as §3, with “NPM/ALK, NPM/ALK positive SUDHL-1 cells, ALK-negative” for “bcr-abl, Abl-negative”, “NPM/ALK” for “or Bcr-abl”, “KARPAS-299” for “LAMA-84”, “Alk-negative” for “Abl-negative”, “^3[H]-thymidine” for “^3H-thymidine”

[7] = test system: Bcr-abl positive LAMA-84 cells; assay: Tritiated thymidine uptake cell proliferation assay, LAMA-84; assay type: cell-based; settings: Homo sapiens, 3[H]-thymidine uptake, 72 h
Description: as §1, §2, §3

[8] = test system: NPM/ALK positive SUDHL-1 cells; assay: Tritiated thymidine uptake cell proliferation assay, SUDHL-1; assay type: cell-based; settings: 3[H]-thymidine uptake, 72 h
Method in brief: as §4

T4 sequence (Q9UM73 whole entry, change not shown, the tested form may be a part): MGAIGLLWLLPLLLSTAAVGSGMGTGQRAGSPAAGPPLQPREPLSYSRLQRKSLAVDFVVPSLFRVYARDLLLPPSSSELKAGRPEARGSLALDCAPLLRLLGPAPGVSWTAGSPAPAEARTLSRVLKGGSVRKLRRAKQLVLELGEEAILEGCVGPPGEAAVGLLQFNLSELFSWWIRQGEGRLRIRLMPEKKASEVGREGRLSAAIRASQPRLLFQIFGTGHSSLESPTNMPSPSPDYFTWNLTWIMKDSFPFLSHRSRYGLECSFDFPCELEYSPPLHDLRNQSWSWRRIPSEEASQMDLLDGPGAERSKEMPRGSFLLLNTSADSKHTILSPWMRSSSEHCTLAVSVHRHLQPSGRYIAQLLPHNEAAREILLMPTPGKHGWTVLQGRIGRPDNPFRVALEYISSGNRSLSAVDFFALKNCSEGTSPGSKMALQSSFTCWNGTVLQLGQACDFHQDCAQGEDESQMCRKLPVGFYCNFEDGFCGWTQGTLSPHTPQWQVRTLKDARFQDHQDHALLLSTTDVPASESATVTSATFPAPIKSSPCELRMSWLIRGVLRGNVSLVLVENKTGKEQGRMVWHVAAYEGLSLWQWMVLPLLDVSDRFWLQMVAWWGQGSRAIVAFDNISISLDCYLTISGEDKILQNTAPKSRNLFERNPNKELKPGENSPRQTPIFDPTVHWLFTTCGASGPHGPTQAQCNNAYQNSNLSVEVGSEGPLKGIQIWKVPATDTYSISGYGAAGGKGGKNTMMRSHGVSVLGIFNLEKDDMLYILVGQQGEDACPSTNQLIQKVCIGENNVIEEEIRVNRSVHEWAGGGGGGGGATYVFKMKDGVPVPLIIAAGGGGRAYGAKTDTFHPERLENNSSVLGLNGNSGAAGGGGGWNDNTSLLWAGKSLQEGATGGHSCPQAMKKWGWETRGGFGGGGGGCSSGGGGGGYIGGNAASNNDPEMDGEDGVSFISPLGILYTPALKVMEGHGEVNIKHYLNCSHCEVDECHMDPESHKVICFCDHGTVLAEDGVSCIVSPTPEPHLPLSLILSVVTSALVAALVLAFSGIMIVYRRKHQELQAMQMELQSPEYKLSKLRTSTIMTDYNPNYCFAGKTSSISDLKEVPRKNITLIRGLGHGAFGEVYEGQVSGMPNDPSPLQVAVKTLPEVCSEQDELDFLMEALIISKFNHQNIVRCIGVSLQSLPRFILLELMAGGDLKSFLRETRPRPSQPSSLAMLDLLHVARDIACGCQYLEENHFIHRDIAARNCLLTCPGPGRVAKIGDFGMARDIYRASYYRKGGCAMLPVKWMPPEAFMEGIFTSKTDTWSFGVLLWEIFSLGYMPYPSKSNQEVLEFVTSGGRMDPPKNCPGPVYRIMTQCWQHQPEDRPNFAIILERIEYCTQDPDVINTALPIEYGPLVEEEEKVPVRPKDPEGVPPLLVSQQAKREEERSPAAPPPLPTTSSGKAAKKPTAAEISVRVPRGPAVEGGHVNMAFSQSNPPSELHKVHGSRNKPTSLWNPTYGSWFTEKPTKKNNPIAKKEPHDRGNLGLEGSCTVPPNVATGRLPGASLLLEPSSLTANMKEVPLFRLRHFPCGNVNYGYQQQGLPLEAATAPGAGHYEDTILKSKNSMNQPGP
T1 sequence (P07949 29-1114): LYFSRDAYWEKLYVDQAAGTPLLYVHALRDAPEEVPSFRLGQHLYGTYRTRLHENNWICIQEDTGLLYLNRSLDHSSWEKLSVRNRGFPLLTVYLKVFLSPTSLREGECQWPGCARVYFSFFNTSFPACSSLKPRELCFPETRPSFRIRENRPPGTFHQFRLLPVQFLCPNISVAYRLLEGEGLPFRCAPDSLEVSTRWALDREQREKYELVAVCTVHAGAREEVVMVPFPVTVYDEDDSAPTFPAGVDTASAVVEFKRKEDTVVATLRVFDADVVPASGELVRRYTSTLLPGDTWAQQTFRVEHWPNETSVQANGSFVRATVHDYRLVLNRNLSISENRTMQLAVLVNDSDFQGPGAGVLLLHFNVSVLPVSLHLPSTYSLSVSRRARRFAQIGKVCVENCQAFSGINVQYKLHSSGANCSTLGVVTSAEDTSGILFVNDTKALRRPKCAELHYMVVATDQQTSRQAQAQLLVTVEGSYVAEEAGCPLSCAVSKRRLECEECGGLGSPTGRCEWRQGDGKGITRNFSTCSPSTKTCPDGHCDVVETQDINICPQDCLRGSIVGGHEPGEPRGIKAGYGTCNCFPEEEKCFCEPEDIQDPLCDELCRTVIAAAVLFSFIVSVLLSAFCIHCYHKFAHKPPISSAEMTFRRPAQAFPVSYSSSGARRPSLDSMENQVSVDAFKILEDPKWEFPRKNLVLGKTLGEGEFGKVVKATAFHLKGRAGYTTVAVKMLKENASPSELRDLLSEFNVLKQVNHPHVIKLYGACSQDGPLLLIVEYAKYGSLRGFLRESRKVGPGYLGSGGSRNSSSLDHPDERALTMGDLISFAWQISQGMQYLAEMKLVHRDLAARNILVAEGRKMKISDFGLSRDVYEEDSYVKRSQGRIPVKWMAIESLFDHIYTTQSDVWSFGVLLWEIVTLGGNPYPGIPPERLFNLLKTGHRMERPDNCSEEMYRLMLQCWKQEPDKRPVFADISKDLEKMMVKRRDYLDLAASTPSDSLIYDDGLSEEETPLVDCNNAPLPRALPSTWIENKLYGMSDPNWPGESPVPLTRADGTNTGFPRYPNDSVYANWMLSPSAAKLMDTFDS
T3 sequence (Q9UM73 19-1620): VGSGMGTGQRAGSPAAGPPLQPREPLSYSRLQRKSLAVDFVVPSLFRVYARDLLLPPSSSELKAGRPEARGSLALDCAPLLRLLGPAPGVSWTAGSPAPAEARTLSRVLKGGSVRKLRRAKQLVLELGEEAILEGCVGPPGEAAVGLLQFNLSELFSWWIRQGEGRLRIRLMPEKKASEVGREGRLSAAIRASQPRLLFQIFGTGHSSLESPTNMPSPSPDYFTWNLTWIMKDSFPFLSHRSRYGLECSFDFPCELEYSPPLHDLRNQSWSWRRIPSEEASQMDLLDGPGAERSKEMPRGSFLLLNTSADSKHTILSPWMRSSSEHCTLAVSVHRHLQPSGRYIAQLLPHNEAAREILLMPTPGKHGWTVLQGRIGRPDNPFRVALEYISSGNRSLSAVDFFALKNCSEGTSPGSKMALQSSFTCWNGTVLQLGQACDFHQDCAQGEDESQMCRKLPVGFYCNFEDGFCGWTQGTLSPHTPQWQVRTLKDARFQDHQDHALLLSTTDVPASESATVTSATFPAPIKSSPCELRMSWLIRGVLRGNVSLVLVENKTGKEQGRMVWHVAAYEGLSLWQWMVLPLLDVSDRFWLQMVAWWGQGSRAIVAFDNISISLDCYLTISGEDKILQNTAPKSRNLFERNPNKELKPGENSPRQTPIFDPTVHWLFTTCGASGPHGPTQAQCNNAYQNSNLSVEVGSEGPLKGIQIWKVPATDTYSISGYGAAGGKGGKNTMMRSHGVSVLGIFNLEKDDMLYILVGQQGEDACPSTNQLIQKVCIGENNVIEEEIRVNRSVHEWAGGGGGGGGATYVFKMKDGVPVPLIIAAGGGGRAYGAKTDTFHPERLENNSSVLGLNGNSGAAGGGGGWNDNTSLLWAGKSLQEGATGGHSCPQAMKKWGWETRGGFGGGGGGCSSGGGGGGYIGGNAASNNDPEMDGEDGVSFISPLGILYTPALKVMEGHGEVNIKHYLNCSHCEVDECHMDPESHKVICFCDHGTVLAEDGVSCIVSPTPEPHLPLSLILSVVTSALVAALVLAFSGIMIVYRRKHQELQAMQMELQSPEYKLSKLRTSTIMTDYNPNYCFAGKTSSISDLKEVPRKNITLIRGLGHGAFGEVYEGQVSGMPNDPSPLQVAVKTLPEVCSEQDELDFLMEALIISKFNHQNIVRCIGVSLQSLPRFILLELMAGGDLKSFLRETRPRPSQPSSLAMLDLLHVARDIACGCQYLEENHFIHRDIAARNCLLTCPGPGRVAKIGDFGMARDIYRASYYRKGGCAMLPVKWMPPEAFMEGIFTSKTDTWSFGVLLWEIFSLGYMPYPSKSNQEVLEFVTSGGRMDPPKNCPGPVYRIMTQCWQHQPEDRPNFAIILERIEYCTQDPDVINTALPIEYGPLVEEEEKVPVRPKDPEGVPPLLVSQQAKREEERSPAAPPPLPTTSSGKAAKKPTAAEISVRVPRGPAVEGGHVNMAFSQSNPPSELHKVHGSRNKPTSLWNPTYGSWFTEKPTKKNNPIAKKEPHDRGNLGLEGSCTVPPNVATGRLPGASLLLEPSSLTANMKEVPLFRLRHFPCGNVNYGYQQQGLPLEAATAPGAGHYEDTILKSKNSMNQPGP

| GI50 [1] [µM] | IC50 (Recombinant Ret protein) [µM] | IC50 [3] [µM] | IC50 (Recombinant ALK kinase) [µM] | GI50 [4] [µM] | GI50 [5] [µM] | IC50 [6] [µM] | IC50 [8] [µM] | Compound | IC50 [2] [µM] | IC50 [7] [µM] |
| --- | --- | --- | --- | --- | --- | --- | --- | --- | --- | --- |
| 2.5 | 8.8 ± 1.6 | > 100 | 88 ± 4.3 | 1.5 | 1.6 |  |  | CN1CCN(Cc2ccc(C(=O)Nc3nc(-c4ccc5[nH]c6ncccc6c5c4)cs3)cc2)CC1 [R222] | 1.5 |  |
| 18 | 16 | 13 ± 4.6 |  | 8 | 11 |  |  | O=C(CBr)c1ccc2[nH]c3ncccc3c2c1 [R228] | 13 |  |
| > 20 |  |  | 1.7 ± 0.4 | > 20 |  | > 20 |  | Clc1cnc2[nH]c3ccc(Br)cc3c2c1 [R252, 6-bromo-3-chloro-9H-pyrido[2,3-b]indole] | > 20 |  |
|  |  | 5 |  | 2.6 ± 1 |  |  | 8.4 | COc1ccc(CNC(=O)CCC(=O)c2ccc3[nH]c4ncc(Cl)cc4c3c2)cc1 [R304, 4-(3-Chloro-9H-pyrido[2,3-b]indol-6-yl)-N-(4-methoxybenzyl)-4-oxobutyramide] | 19 ± 7 | 1.6 |
|  | 1.3 | 3.5 ± 0.03 | 0.8 ± 0.3 | 7.3 ± 0.3 |  |  | 5.7 | O=C(CSc1ccccc1)c1ccc2[nH]c3nc(Cl)ccc3c2c1 [R306, 1-(2-Chloro-9H-pyrido[2,3-b]indol-6-yl)-2-phenylsulfanylethanone] | 25 ± 3 | 1.4 |
|  |  | 8.3 |  | 15 ± 3 |  |  | 32 | COc1ccc(-c2ccc3[nH]c4nc(-c5ccc(OC)cc5)ccc4c3c2)cc1 [R311, 2,6-di(4-methoxyphenyl)-9H-pyrido[2,3-b]indole] | > 100 | 55 |
|  |  | > 50 |  | 1.6 ± 0.1 |  |  | 2.1 | C(=C\c1cnc2[nH]c3ccc(-c4ccc(CN5CCOCC5)cc4)cc3c2c1)/c1ccccc1 [R314, 6-(4-(morpholin-4-yl)methylphenyl)-3-(2′-phenylethenyl)-9H-pyrido[2,3-b]indole] |  | 2.1 |
